The results in this text go back to a melting point compilation (Tetko et al.; mined from patent text by program, amines drawn as free bases though some values may be those of a salt).

For orientation: melting point means the temperature of the solid-liquid transition.

`CCOc1cc(NC(=S)NS(=O)(=O)c2ccc(C)cc2)ccn1` registered a melting point of 152 to 153 °C.
`CCCCc1nc(Cl)c(COC)n1Cc1ccc(C(=O)O)cc1` showed a melting point of 126 to 128 °C.
For the compound `CSCC1COCc2nc3c(N)nc4ccccc4c3n21` (stereo not drawn), the melting point lay in the range of 105 to 108 °C.
The figure for `CC(C)(C)OCCCNC(=O)c1nn(C2CCCCO2)cc1NC(=O)c1ccccn1` (stereo not drawn) is 101 to 103 °C; for `O=C(CO)c1ccc(C(F)(F)F)cc1` it is 112 to 114 °C; for `CC(C)(C)c1cc(C=Cc2ccccc2NC(=O)NC2CCCCCC2)cc(C(C)(C)C)c1O` it is 203 to 206 °C.
Turning to `O=C(O)c1cc2c(c(C(=O)O)c1)NCCCC2`, the melting point is 287 to 288 °C.
In turn, `COc1cc(C=CC(=O)C(C)C(=O)C=Cc2ccc(O)c(OC)c2)ccc1O` (stereo not drawn) had a melting point of 180 to 183 °C.
The figure for `O=C(c1cccs1)c1cnn2c(-c3cccc(-c4nnn(Cc5cccnc5)n4)c3)ccnc12` is 95 °C; for `CCOC(=O)c1ccc(OCCN2CCN(c3ccc(I)nn3)CC2)cc1` it is 123 °C.
With `CCOCc1nc2c(N)nc3ccccc3c2n1CC1(O)CCN(C(=O)OCC)CC1` the figure was 165 to 167 °C; with `CCCCCc1cc(O)c2c3c(c(=O)oc2c1)SC(C)(C)C3`, 203 to 206 °C; with `CC(=O)NCC1CN(c2cccc(Cl)n2)C1`, 136 to 138 °C.
Compound `O=C(c1ccc(O)cc1)c1cc(C(=O)c2ccc(O)cc2)cc([N+](=O)[O-])c1` gave a melting point of 230 to 232 °C.
With `Fc1ccc(-c2[nH]c(C3CCCNC3)nc2-c2ccncc2)cc1` (stereo not drawn) the figure was 252 to 254 °C; with `Oc1cc(-c2cc3n(n2)CCCC3)c(F)cc1Cl`, 218 to 220 °C; with `CC(C)CN(CC(O)C(Cc1ccccc1)NC(=O)C(CC(N)=O)NC(=O)c1ccc2ccccc2n1)C(=O)NC(C)(C)C` (stereo not drawn), 107 to 110 °C.
`COc1ccc(CCCc2ccc(O)cc2)c(O)c1` had a melting point of 95 to 96 °C.
As to `O=C(Nc1c(Cl)cc(C(F)(c2cccs2)C(F)(F)F)cc1Cl)c1cccc(NC(=O)c2c(F)cc(F)cc2F)c1F` (stereo not drawn), the melting point lay in the range of 190 to 193 °C.
Regarding `CC1(C)CCC(C)(C)c2cc(C(=O)C(=O)c3ccc(C(=O)O)cc3)ccc21`, the melting point was in the range of 148 to 151 °C.
The figure for `Cc1cc(CCC(=O)c2ccc(-c3ccc(C(F)(F)F)cc3)s2)cc(C)c1OC(C)(C)C(=O)O` is 157 to 158 °C; for `COc1ccc(C2=NN(Cc3cccc(C(=O)NC4CCCC4)c3)C(=O)CC2)cc1OC` it is 179 °C.
Compound `CCCC(=O)Nc1ccc(N2CCC(NC[C@H](O)COc3cccc4[nH]c5ccccc5c34)CC2)cc1` returned a melting point of 194 to 199 °C.
The figure for `CCN1NC=C2C1=NC=CC2(ON=C(C)C)C(O)c1ccccn1` (stereo not drawn) is 131 to 133 °C.
With `c1ccc(CCc2nc3cccc4c3n2CCC4)cc1` the figure was 107 to 108 °C.
`O=C(O)CCCCCCCCCCC(=O)Nc1ccccc1OCCCC(=O)O` had a melting point of 128 to 130 °C.
`COC(=O)c1ccc(NC(C)=O)c(CC(=O)O)c1`: the melting point was determined as 194 °C.
The figure for `N#CCCN1CCCCC1=Nc1ccccc1N1CCOCC1` is 148 °C; for `COc1ccc(CC(=O)O)cc1C1CCCCC1` it is 112 to 114 °C.
In turn, `CCCC(Cc1ccc(OCCN2CCCCCC2)cc1)(C(=O)O)S(=O)(=O)c1ccc(OC)cc1` (stereo not drawn) came in with a melting point of 55 °C.
The figure for `CSCCc1nc(N2CCc3ccccc3CC2)c(C#N)c(=O)n1CCO` is 93 to 99 °C; for `CNC(=O)CN1CCc2cc(Nc3ncc(Cl)c(Nc4cc(Cl)ccc4OC)n3)c(OC)cc2CC1` it is 127 to 136 °C; for `CCN(CC)CCNc1ccc(C)c2sc3ccc(OC)cc3c(=O)c12` it is 81 to 82 °C.
`COC(=O)c1ccc(OCCNC(=O)C2Cc3ccccc3N2S(=O)(=O)c2ccc(-c3ccc(F)cc3Cl)cc2)cc1F` (stereo not drawn): the melting point is 71 to 76 °C.
Compound `O=C(NCCO[N+](=O)[O-])c1cnc(-c2ccccc2)s1` yielded a melting point of 148 to 149 °C.
`Cc1sc2c(Br)c3ccccc3c(-c3ccc(OS(=O)(=O)c4ccc(C(=O)O)c(O)c4)c(C4CCCC4)c3)c2c1C` had a melting point greater than 225 °C.
The figure for `O=C(Nc1cccc2c1C(=O)c1c-2n[nH]c1-c1ccc(N2CCNCC2)cc1)NN1CCC[C@@H]1CO` is 190 °C; for `OC1CSC(Oc2ccc(Cl)nc2)C(O)C1O` (stereo not drawn) it is 218 °C.
Take `Cc1c(OCC(F)(F)F)ccnc1CSc1nc2cc(CO)ccc2[nH]1`: the melting point fell in the range of 153 to 155 °C.
With `O=C(O)c1cnn2c(C(F)(F)F)cc(-c3ccc(F)c(F)c3)nc12` the figure was 274 °C; with `CCOc1cc(CO)ccc1OCc1nc(-c2ccco2)oc1C`, 141 to 142 °C.
With `O=Cc1ncn2cc(Br)sc12` the figure was 200 to 201 °C.
Take `C[C@@H](NC(=O)C1(C)CC(F)(F)C1)c1ccc(Br)cc1`: the melting point was 120 to 122 °C.
The figure for `CN(Cc1cc2c(=O)c(C(=O)NCc3ccc(Cl)cc3)cn(C)c2o1)CC(O)c1ccc(O)cc1` (stereo not drawn) is 72 to 75 °C.
Consider `CC(=O)N1CCC(NC(=O)Nc2cccc(C(F)(F)F)c2)CC1`, for which the melting point is 212 to 217 °C.
As for `COC(=O)c1snc(-c2ccccc2)c1C(=O)OC`, the melting point lay in the range of 70 to 71.5 °C.
With `CCO[C@@H]1[C@@H](OC)[C@H](C)O[C@@H](ON=Cc2ccc(C#Cc3ccc(OC(F)(F)F)cc3)cc2)[C@@H]1OC` the figure was 82 to 87 °C; with `COc1ccc(-c2cc(=Nc3c(C)cc(C)cc3C)n(C)c(SC)n2)cc1OC`, 172 to 173 °C.
Turning to `O=c1ccoc(C(O)c2cccnc2)c1O` (stereo not drawn), the melting point fell in the range of 176 to 180 °C.
`O=CNc1c(-c2ccccc2)sc2ccccc12` displayed a melting point of 78 to 79 °C.
As to `COc1ccc2[nH]cc(C3CCN(CCCCN4C(=O)c5ccccc5C4=O)CC3)c2c1`, the melting point was found to be 155 °C.
With `Cc1cc2ccccn2c1C(=O)c1ccc2c(c1)c(=O)c(C(=O)O)cn2C` the figure was 308 °C; with `NNC(=O)C1(N)CCN(Cc2ccccc2)CC1`, 231 °C.
Regarding `CCCc1ccc(-c2ccc(-c3ccc(CC)cc3)cc2F)s1`, the melting point was found to be 41 °C.
With `C=CCNc1c(C(C)=O)cnc2cn[nH]c12` the figure was 211 to 213 °C; with `CC(C)C(NC(=O)C(C)(N)c1ccc2ccccc2c1)C(=O)Nc1nn(C(=O)OCc2ccccc2)c(=S)s1` (stereo not drawn), 125 to 132 °C; with `O=C1c2cccc3cccc(c23)C(=O)N1CCCCCO`, 96.5 to 97.5 °C.
`CCOC(=O)C1=C(N)N=C(OCC)C(C(=O)OCC)C1c1cccc(Cl)c1` (stereo not drawn) came in with a melting point of 121 °C.
Take `COC(=O)C(c1ccc(O)cc1)N1CC(N2C(=O)c3ccccc3C2=O)C1=O` (stereo not drawn): the melting point fell in the range of 203 to 204 °C.
As to `O=C(O)c1ccc(-c2nnn[nH]2)nc1`, the melting point was 257 to 259 °C.
With `CC(=O)NCC1CN(c2ccc(N3CCN(C4=NC(=O)CS4)CC3)c(F)c2)C(=O)O1` (stereo not drawn) the figure was 225 to 227 °C.
Turning to `CC(C)Oc1nc2cc([N+](=O)[O-])c(-n3ccc(=O)cc3)cc2[nH]c1=NC#N`, the melting point is greater than 300 °C.
For `CCCOC(=O)C1=C(N)NC(C)=C(C(=O)OCC)C1c1cccc([N+](=O)[O-])c1` (stereo not drawn), the melting point is 168 °C.
`CC(=NO)C1=CCN(C)CC1` came in with a melting point of 166 to 168 °C.
`Cc1c(Cl)nn2cc(-c3ccc(F)cc3)nc2c1C` came in with a melting point of 172 to 174 °C.
For `CC=CC(=O)Oc1cc(C)nc(C(Cl)(Cl)Cl)n1`, the melting point worked out at 55 °C.
On to `CC(Br)c1ccc2occ(C#N)c(=O)c2c1` (stereo not drawn), for which the melting point lay within 162 to 164 °C.
With `O=C1c2ccccc2SC12CC2` the figure was 70 °C; with `CCN(CC)c1cccc(OCCOS(N)(=O)=O)c1`, 105 to 106 °C; with `Cc1c(CO)c(CO)c2n1-c1ccccc1C2`, 123 to 125 °C.
The figure for `CC(=O)OCCC1CCc2c(C3=C(c4cn(C)c5ccccc45)C(=O)OC3=O)c3ccccc3n2C1` (stereo not drawn) is 182 to 184 °C; for `NC(=NCC(F)(F)F)Nc1ccnc(SCCN2C(=O)c3ccccc3C2=O)n1` it is 192 to 195 °C; for `CCNC(=O)C(c1ccccc1)c1ccccc1` it is 87 °C.
Consider `CCCCOc1ccccc1C=CC(=O)c1ccc(OC)c(OC)c1OC`, for which the melting point is 129 to 130 °C.
With `CS(=O)(=O)c1ccc(/C(=C(/CO)CCO)c2ccc(Cl)cc2)cc1` the figure was 159 to 160 °C; with `COc1ccc(CSc2ccc([N+](=O)[O-])cc2CNCCc2ccccc2)cc1`, 80 to 85 °C; with `CCn1c2ccccc2c2cc(NC(C)=O)ccc21`, 195 to 197 °C.
With `COc1cccc(NC(=O)NC2N=C(c3ccccc3)c3ccc(C)cc3N(C)C2=O)c1` (stereo not drawn) the figure was 184 to 188 °C; with `CCc1nc2cc(CO)c(Cl)cc2n1-c1ccc(CCOC(=O)NS(=O)(=O)c2ccc(C)cc2)cc1`, 173 °C; with `O=C(c1cccs1)c1cccnc1N1CCCC1=O`, 148 to 150 °C.
With `COc1ccc(C2NC(C(=O)O)C(C)(C)S2)c(C(=O)O)c1OC` (stereo not drawn) the figure was 90 to 91 °C; with `COc1ccc(Cn2nnnc2C(=O)Nc2cccc(N3CCCCC3)c2C#N)cc1`, 166 to 168 °C; with `CCCN(C(=O)OCC(Cl)(Cl)Cl)C1CN(C(=O)Nc2ccc(C(F)(F)F)cc2)N=C1c1ccc(Cl)cc1` (stereo not drawn), 172 to 173 °C.
`O=C(CC(=O)C1CCCCC1)C1CCCCC1` yielded a melting point of 50 to 52 °C.
`N#Cc1nn(-c2c(Cl)cc(C(F)(F)F)cc2Cl)c(N)c1-c1ccoc1C(F)(F)F` gave a melting point of 155 to 157 °C.
The figure for `O=C(O)COc1nn(Cc2ccccc2)cc1-c1ccccc1` is 132 to 133 °C; for `CC(C)(COC(=O)c1ccc(C(=O)O)cc1)COC(=O)c1ccc(C(=O)O)cc1` it is 287 to 288 °C; for `O=C(CC(F)(F)F)CS(=O)(=O)C(c1ccc(Cl)cc1)c1ccc(Cl)cc1` it is 48 to 50 °C.
